Earlier results as cited in patent US8623415B2, “Method for producing biologically ingestible microparticles, biologically ingestible microparticles, and dispersion and pharmaceutical composition containing the same” (M. Technique Co., Ltd., priority 2007, dated 2014).
Where two headings read alike, the source gives them in different places.

Experiments:
[1] = dissolved in an aqueous solution of pH 6 or higher

Structure (SMILES)	biological availability (BA) (commercial product (average particle diameter 10 μm) administered to a dog as a suspension) [%]	biological availability (BA) (nano-suspension, average particle diameter 169 nm, dog) [%]	stability in aqueous solution [1]
C#C[C@]1(O)CC[C@H]2[C@@H]3CCC4=Cc5oncc5C[C@]4(C)[C@H]3CC[C@@]21C [danazol, 17-α-pregno-2,4-diene-20-ino-[2,3-d]-isoxazol-17-ol (danazol)]	5.1	82.3	
O=C(O)c1cc(O)c2c3nc4ccccc4oc-3cc(=O)c2n1 [pirenoxine]			hydrolyzed
